{"source": "patent US20210177795A1", "about": "(priority 2017, published 2021)", "key": {"[1]": {"test_system": "cytokines/chemokines", "design": "species or system C57BL/6 mice", "conditions": "mouse, in vivo"}, "[2]": {"test_system": "KC", "design": "species or system C57BL/6 mice", "conditions": "mouse, in vivo"}, "[3]": {"conditions": "mouse, in vivo"}, "[4]": {"test_system": "IL-10", "design": "species or system C57BL/6 mice", "conditions": "mouse, in vivo"}, "[5]": {"test_system": "Udorn influenza virus (A/Udorn/307/72 (H3N2))", "design": "species or system C57BL/6 mice", "conditions": "mouse, in vivo"}, "[6]": {"test_system": "IL-6", "design": "species or system C57BL/6 mice", "conditions": "mouse, in vivo"}, "[7]": {"test_system": "RANTES", "design": "species or system C57BL/6 mice", "conditions": "mouse, in vivo"}, "[8]": {"test_system": "MCP-1", "design": "species or system C57BL/6 mice", "conditions": "mouse, in vivo"}}, "note": "Entries after “also recorded” stand apart in the source; their conditions may differ.", "data": [{"compound": "CCC(=O)OCC(CSCC(N)C(=O)NC(CO)C(=O)NCCOCC(=O)NCC(N)=O)OC(=O)CC", "note": "(stereo not drawn) [INNA-006, PEG-S-Pam2Cys]", "values": [{"measurement": "cytokine/chemokine levels in nasal turbinates, lungs and sera, 3 repeat doses vs single dose", "setting": "[1]", "result": "marked decrease"}, {"measurement": "cytokine/chemokine profiles in lungs, trachea and sera, single vs triple dose regimes", "setting": "[1]", "result": "no discernible differences"}, {"measurement": "proinflammatory cytokines and chemokines including IL-6, KC & MCP-1 in nasal turbinates vs saline", "setting": "[1]", "result": "increases were detected in a dose-dependent manner"}, {"measurement": "KC in the lungs compared to the saline control", "setting": "[2]", "result": "no significance"}, {"measurement": "KC level in lungs", "setting": "[2]", "result": "~14", "unit": "pg/mL"}, {"measurement": "KC level in nasal turbinates", "setting": "[2]", "result": "~83", "unit": "pg/mL"}, {"measurement": "KC levels in the lung", "setting": "[2]", "result": "~16.3", "unit": "pg/mL"}, {"measurement": "fold increase of KC in nasal turbinates vs saline", "setting": "[2]", "result": 2, "unit": "fold"}, {"measurement": "fold increase of KC secretion in lungs compared to INNA-003", "setting": "[2]", "result": 2, "unit": "fold"}, {"measurement": "fold increase of KC secretion in lungs compared to saline control", "setting": "[2]", "result": 3, "unit": "fold"}, {"measurement": "greatest weight loss", "setting": "[3]", "result": "1.87%±1.33%"}, {"measurement": "IL-10 level in nasal turbinates", "setting": "[4]", "result": "~17", "unit": "pg/mL"}, {"measurement": "fold increase of IL-10 in nasal turbinates vs saline", "setting": "[4]", "result": 2, "unit": "fold"}, {"measurement": "progression of influenza virus to the lungs", "setting": "[5]", "result": "significantly inhibited; also recorded: partial inhibition"}, {"measurement": "IL-6 in nasal turbinates, fold lower with 3 doses vs single dose", "setting": "[6]", "result": "approximately 25 fold"}, {"measurement": "fold increase in IL-6 levels in nasal turbinates vs saline", "setting": "[6]", "result": 98, "unit": "fold"}, {"measurement": "RANTES level in nasal turbinates", "setting": "[7]", "result": "~141", "unit": "pg/mL"}, {"measurement": "RANTES secretion in nasal turbinates compared to INNA-003", "setting": "[7]", "result": "increased RANTES secretion"}, {"measurement": "fold increase of RANTES in nasal turbinates vs saline", "setting": "[7]", "result": 1.9, "unit": "fold"}, {"measurement": "MCP-1 level in nasal turbinates", "setting": "[8]", "result": "~66", "unit": "pg/mL"}, {"measurement": "fold increase of MCP-1 in nasal turbinates vs saline", "setting": "[8]", "result": 7, "unit": "fold"}]}, {"compound": "PEG-[Arg]4-Ser-Ser-Pam2Cys [INNA-002]", "values": [{"measurement": "antiviral effect across doses", "setting": "[5]", "result": "dose-dependent antiviral-effect"}, {"measurement": "progression of influenza virus to the lungs", "setting": "[5]", "result": "inhibited; also recorded: partial inhibition"}]}, {"compound": "CCCCCCCCCCCCCCCC(=O)OCC(CSC[C@H](N)C(=O)N[C@@H](CO)C(=O)N[C@@H](CO)C(=O)NCCOCCOCCOCCOCCOCCOCCOCCOCCOCCOCCOCCOCCC(=O)NCC(N)=O)OC(=O)CCCCCCCCCCCCCCC", "note": "(stereo partly drawn) [INNA-003, PEG-S—S-Pam2Cys]", "values": [{"measurement": "greatest weight loss", "setting": "[3]", "result": "1.89%±1.15%"}]}]}
